Assay results taken from patent publication US12344603B2 (Genentech, Inc., priority 2020, dated 2025).
Counter-ions that a name gives are not always drawn.

Target: IRE1α (Homo sapiens (Human), UniProt O75460, D688N)
Experiment: IRE1α TR-FRET competition binding assay (IRE1α HTRF)
Details: TR-FRET competition binding to kinase domain of IRE1α
Procedure: IRE1α TR-FRET Competition Binding Assay. The affinity of compound binding to the kinase domain of IRE1α was determined using a time-resolved fluorescence resonance energy transfer (TR-FRET) competition assay.
The purified protein (final concentration 0.25 nM) was pre-incubated with anti-His Europium labeled antibody (Life Technologies PV5596, final concentration 2 nM) for one hour at 4° C. in TR-FRET Assay Buffer (50 mM HEPES, pH 7.5, 10 mM MgCl2, 0.083 mM Brij 35, 1 mM DTT, and 0.1% bovine gamma globulin) prior to addition to test compounds. An Alexa fluor 647-labeled probe based on an ATP competitive inhibitor was added to a final concentration of 2 nM. Reactions were carried out for one hour at room temperature in a final volume of 20 μL in 384 well white ProxiPlates (Perkin Elmer 6008289). Binding of the probe to the IRE1α protein was detected in an Envision instrument (PerkinElmer) equipped with a TRF laser option and a LANCE/Delfia Dual/Bias D400/D630 mirror (Ex 347 nm, 1st Em 665 nm, 2nd Em 615 nm).

Sequence of IRE1α (O75460 547-977 D688N): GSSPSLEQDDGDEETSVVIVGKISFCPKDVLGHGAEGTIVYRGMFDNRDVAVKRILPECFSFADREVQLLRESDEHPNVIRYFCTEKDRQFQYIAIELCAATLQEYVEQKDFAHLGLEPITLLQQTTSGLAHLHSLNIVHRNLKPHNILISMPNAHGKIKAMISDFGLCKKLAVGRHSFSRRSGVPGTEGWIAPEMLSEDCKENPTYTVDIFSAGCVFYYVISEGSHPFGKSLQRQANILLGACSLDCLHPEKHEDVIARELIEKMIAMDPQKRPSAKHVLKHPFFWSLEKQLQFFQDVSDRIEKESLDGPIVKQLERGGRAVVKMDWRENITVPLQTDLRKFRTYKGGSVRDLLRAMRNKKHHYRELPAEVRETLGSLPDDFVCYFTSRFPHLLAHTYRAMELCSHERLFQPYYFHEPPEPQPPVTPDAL

IC50	Compound
0.13 nM	CC(C)n1c(=O)c(-c2ccc(NS(=O)(=O)Cc3ccc(F)cc3)c(F)c2)cc2cnc(N[C@@H]3CNC[C@@H](F)C3)nc21 [Compound 112, N-(2-Fluoro-4-(2-(((3S,5S)-5-fluoropiperidin-3-yl)amino)-8-isopropyl-7-oxo-7,8-dihydropyrido[2,3-d]pyrimidin-6-yl)phenyl)-1-(4-fluorophenyl)methanesulfonamide hydrochloride]
0.21 nM	CC(C)n1c(=O)c(-c2cc(F)c(NS(=O)(=O)Cc3ccc(C#N)cc3)c(F)c2F)cc2cnc(N[C@@H]3CNC[C@@H](F)C3)nc21 [Compound 29, 1-(4-Cyanophenyl)-N-(2,3,6-trifluoro-4-(2-(((3S,5S)-5-fluoropiperidin-3-yl)amino)-8-isopropyl-7-oxo-7,8-dihydropyrido[2,3-d]pyrimidin-6-yl)phenyl)methanesulfonamide]
8.5 nM	CC(C)n1c(=O)c(-c2cc(F)c(NS(=O)(=O)Cc3ccccc3F)c(F)c2F)cc2cnc(N[C@H]3CNC[C@@H](O)C3)nc21 [Compound 88, 1-(2-Fluorophenyl)-N-(2,3,6-trifluoro-4-(2-(((3R,5S)-5-hydroxypiperidin-3-yl)amino)-8-isopropyl-7-oxo-7,8-dihydropyrido[2,3-d]pyrimidin-6-yl)phenyl)methanesulfonamide]
0.22 nM	CC(C)n1c(=O)c(-c2cc(F)c(NS(=O)(=O)Cc3ccccc3)c(F)c2F)cc2cnc(N[C@@H]3CNC[C@@](C)(F)C3)nc21 [Compound 27, 1-Phenyl-N-(2,3,6-trifluoro-4-(2-(((3S,5S)-5-fluoro-5-methylpiperidin-3-yl)amino)-8-isopropyl-7-oxo-7,8-dihydropyrido[2,3-d]pyrimidin-6-yl)phenyl)methanesulfonamide]
1.1 nM	O=c1c(-c2ccc(NS(=O)(=O)Cc3ccccc3)c(F)c2F)cc2cnc(N[C@@H]3CNC[C@@H](F)C3)nc2n1CC(F)F [Compound 11, N-(4-(8-(2,2-Difluoroethyl)-2-(((3S,5S)-5-fluoropiperidin-3-yl)amino)-7-oxo-7,8-dihydropyrido[2,3-d]pyrimidin-6-yl)-2,3-difluorophenyl)-1-phenylmethanesulfonamide]
2.2 nM	CC(C)n1c(=O)c(-c2ccc(F)c(NS(=O)(=O)Cc3ccccc3)c2F)cc2cnc(N[C@H]3CCCNC3)nc21 [Compound 19, (S)—N-(2,6-Difluoro-3-(8-isopropyl-7-oxo-2-(piperidin-3-ylamino)-7,8-dihydropyrido[2,3-d]pyrimidin-6-yl)phenyl)-1-phenylmethanesulfonamide]
0.13 nM	Cc1ccc(CS(=O)(=O)Nc2c(F)cc(-c3nc4cnc(N[C@@H]5CNC[C@@H](F)C5)nc4n(C(C)C)c3=O)c(F)c2F)cc1 [Compound 170, 1-p-Tolyl-N-(2,3,6-trifluoro-4-(2-(((3S,5S)-5-fluoropiperidin-3-yl)amino)-8-isopropyl-7-oxo-7,8-dihydropteridin-6-yl)phenyl)methanesulfonamide hydrochloride]

Continued, compound first:

Compound	IC50
CC(C)n1c(=O)c(-c2cc(F)c(NS(=O)(=O)Cc3ccccc3)c(F)c2)nc2cnc(N[C@H]3CC[C@H](N(C)C)CC3)nc21 [Example 247, N-[4-[2-[[4-(Dimethylamino)cyclohexyl]amino]-8-isopropyl-7-oxo-pteridin-6-yl]-2,6-difluoro-phenyl]-1-phenyl-methanesulfonamide]	0.1 nM
CC[C@H](C)n1c(=O)c(-c2ccc(NS(=O)(=O)CCC(F)(F)F)c(F)c2)cc2cnc(N[C@H]3CC[C@H](N(C)C)CC3)nc21 (single isomer, unassigned) [Compound 203A]	0.1 nM
N-(2,3,6-trifluoro-4-(8-isopropyl-2-((4-((2-methoxyethyl)(methyl)amino)cyclohexyl)amino)-7-oxo-7,8-dihydropyrido[2,3-d]pyrimidin-6-yl)phenyl)propane-1-sulfonamide [Compound 101B]	120 nM
Cc1nc(NS(=O)(=O)c2ccccc2Cl)ccc1-c1nc2cnc(N[C@H]3CC[C@H](N(C)C)CC3)nc2n(C(C)C)c1=O [Example 254, N-[5-[2-[[4-(Dimethylamino)cyclohexyl]amino]-8-isopropyl-7-oxo-pteridin-6-yl]-6-methyl-2-pyridyl]-2-chloro-benzenesulfonamide]	0.3 nM
CC(C)n1c(=O)c(-c2ccc(NS(=O)(=O)CCC(F)(F)F)c(F)c2)cc2cnc(N[C@H]3CC[C@H](N(C)CC4CCO4)CC3)nc21 (stereo partly drawn) [Compound 209, 3,3,3-Trifluoro-N-(2-fluoro-4-(8-isopropyl-2-(((1,4-trans)-4-(methyl(oxetan-2-ylmethyl)amino)cyclohexyl)amino)-7-oxo-7,8-dihydropyrido[2,3-d]pyrimidin-6-yl)phenyl)propane-1-sulfonamide]	0.19 nM
O=c1c(-c2ccc(NS(=O)(=O)Cc3ccccc3)c(F)c2F)cc2cnc(N[C@@H]3CNC[C@@H](F)C3)nc2n1C1CC1 [Compound 10, N-(4-(8-cyclopropyl-2-(((3S,5S)-5-fluoropiperidin-3-yl)amino)-7-oxo-7,8-dihydropyrido[2,3-d]pyrimidin-6-yl)-2,3-difluorophenyl)-1-phenylmethanesulfonamide]	1.1 nM
Cc1nc(NS(=O)(=O)c2ccc(F)cc2)ccc1-c1cc2cnc(N[C@H]3CC[C@H](N(C)C)CC3)nc2n(C(C)C)c1=O [Compound 132, N-(5-(2-(((1r,4r)-4-(Dimethylamino)cyclohexyl)amino)-8-isopropyl-7-oxo-7,8-dihydropyrido[2,3-d]pyrimidin-6-yl)-6-methylpyridin-2-yl)-4-fluorobenzenesulfonamide]	0.52 nM
CCn1c(=O)c(-c2ccc(NS(=O)(=O)Cc3ccccc3)c(F)c2F)cc2cnc(N[C@@H]3CNC[C@@H](F)C3)nc21 [Compound 12, N-(4-(8-Ethyl-2-(((3S,5S)-5-fluoropiperidin-3-yl)amino)-7-oxo-7,8-dihydropyrido[2,3-d]pyrimidin-6-yl)-2,3-difluorophenyl)-1-phenylmethanesulfonamide]	0.57 nM
CC(C)n1c(=O)c(-c2ccc(NS(=O)(=O)CCC3CCC3)c(F)c2)cc2cnc(N[C@H]3CC[C@H](N(C)C)CC3)nc21 [Example 231, 2-cyclobutyl-N-(4-(2-(((1r,4r)-4-(dimethyl-amino)cyclohexyl)-amino)-8-isopropyl-7-oxo-7,8-dihydropyrido-[2,3-d]pyrimidin-6-yl)-2-fluorophenyl)ethane-1-sulfonamide]	0.1 nM
CC(C)n1c(=O)c(-c2ccc(NS(=O)(=O)C3CC4(CCC4)C3)c(F)c2)nc2cnc(N[C@H]3CC[C@H](N(C)C)CC3)nc21 [Example 277, N-[4-[2-[[4-(Dimethylamino)cyclohexyl]amino]-8-isopropyl-7-oxo-pteridin-6-yl]-2-fluoro-phenyl]spiro[3.3]heptane-2-sulfonamide]	0.2 nM
CC(C)n1c(=O)c(-c2cc(F)c(NS(=O)(=O)Cc3ccc(C(F)F)cc3)c(F)c2)cc2cnc(N[C@H]3CC[C@H](N(C)C)CC3)nc21 [Compound 125, 1-(4-(Difluoromethyl)phenyl)-N-(4-(2-(((1r,4r)-4-(dimethylamino)cyclohexyl)amino)-8-isopropyl-7-oxo-7,8-dihydropyrido[2,3-d]pyrimidin-6-yl)-2,6-difluorophenyl)methanesulfonamide]	0.19 nM
CC(C)n1c(=O)c(-c2ccc(NS(=O)(=O)CCCC3CC3)c(F)c2)cc2cnc(N[C@H]3CC[C@H](N(C)C)CC3)nc21 [Example 232, 3-cyclopropyl-N-(4-(2-(((1r,4r)-4-(dimethyl-amino)cyclohexyl)-amino)-8-isopropyl-7-oxo-7,8-dihydropyrido-[2,3-d]pyrimidin-6-yl)-2-fluorophenyl)propane-1-sulfonamide]	0.2 nM
COCCN(C)[C@H]1CC[C@H](Nc2ncc3cc(-c4cc(F)c(NS(=O)(=O)Cc5ccc(F)cc5)c(F)c4)c(=O)n(C(C)C)c3n2)CC1 [Compound 122, N-(2,6-Difluoro-4-(8-isopropyl-2-(((1r,4r)-4-((2-methoxyethyl)(methyl)amino)cyclohexyl)amino)-7-oxo-7,8-dihydropyrido[2,3-d]pyrimidin-6-yl)phenyl)-1-(4-fluorophenyl)methanesulfonamide]	0.12 nM
CC(C)n1c(=O)c(-c2ccc(NS(=O)(=O)CCC(F)(F)F)nc2)nc2cnc(N[C@H]3CC[C@H](N(C)CCF)CC3)nc21 [Compound 187, 3,3,3-Trifluoro-N-(5-(2-(((1r,4r)-4-((2-fluoroethyl)(methyl)amino)cyclohexyl)amino)-8-isopropyl-7-oxo-7,8-dihydropteridin-6-yl)pyridin-2-yl)propane-1-sulfonamide]	0.31 nM
CC(C)n1c(=O)c(-c2ccc(NS(=O)(=O)CCC(F)(F)F)c(F)c2)cc2cnc(N[C@@H]3CC[C@@H](N(C)C)[C@H](O)C3)nc21 [Example 227, N-(4-(2-(((1R,3R,4R)-4-(Dimethylamino)-3-hydroxycyclohexyl)amino)-8-isopropyl-7-oxo-7,8-dihydropyrido[2,3-d]pyrimidin-6-yl)-2-fluorophenyl)-3,3,3-trifluoropropane-1-sulfonamide]	0.3 nM
Cc1ccc(CS(=O)(=O)Nc2c(F)cc(-c3nc4cnc(N[C@H]5CC[C@H](N(C)C)CC5)nc4n(C(C)C)c3=O)cc2F)cc1 [Example 246, N-[4-[2-[[4-(Dimethylamino)cyclohexyl]amino]-8-isopropyl-7-oxo-pteridin-6-yl]-2,6-difluoro-phenyl]-1-(p-tolyl)methanesulfonamide]	0.2 nM
